Experimental data: patent US10919923B2, “Organic phosphorus-based compound, and flame retardant and flame-retardant product comprising the same” (TEIJIN LIMITED, priority 2016, dated 2021)

Columns and labels:
Format in all cases: physicochemical
[1] = Solubility in 20° C. water (visual check of dissolution); conditions: distilled water at 20° C., stirred 1 minute per addition
Procedure: Dissolution was visually checked after the organic phosphorus-based compound was added little by little to 100 g of distilled water adjusted to 20° C. and stirred for 1 minute for each addition.

[2] = ΔpH value of filtrate after stirring compound in dispersant solution; conditions: 1 g compound in 1% phenol type nonionic surfactant solution, |pH1−pH2|
Procedure: The ΔpH value can be measured by the following method using a commercially available pH measuring instrument. 1 g of a dispersant is added to 99 g of distilled water used for the measurement and stirred to measure the pH of the obtained aqueous solution (the measurement value is designated as pH1). After 1 g of the organic phosphorus-based compound (1) of the present invention is added to the aqueous solution and stirred for 1 minute, the organic phosphorus-based compound (1) is filtered. The pH of the obtained filtrate is measured (the measurement value is designated as pH2). The ΔpH value of the present invention is calculated from the following equation (I). ΔpH value=|pH1−pH2| (I) (vi) Volume Standard Median Diameter, (vii) Maximum Particle Diameter, (viii) Standard Deviation
This was measured by the following method using a pH measuring instrument (HORIBA pH METER D-52 of HORIBA, LTD.). 1 g of a dispersant (phenol type nonionic surfactant) was added to 99 g of distilled water used for the measurement and stirred to measure the pH of the obtained aqueous solution (the measurement value was designated as pH1). After 1 g of the organic phosphorus-based compound was added to the aqueous solution and stirred for 1 minute, the organic phosphorus-based compound was filtered. The pH of the obtained filtrate was measured (the measurement value was designated as pH2). The ΔpH value was calculated from the following equation (I). ΔpH value=|pH1−pH2| (I) (vi) Volume Standard Median Diameter, (vii) Maximum Particle Diameter, (viii) Standard Deviation

[3] = Particle size distribution by Microtrack HRA
Procedure: The volume standard median diameter (vi), the maximum particle diameter (vii) and the standard deviation (viii) can be measured by using the microtrack of Nikkiso Co., Ltd. and measurement conditions that the particles should be transparent and that the particle shape should be nonspherical.
They were measured by using the Microtrack HRA of Nikkiso Co., Ltd. The measurement conditions are that the particles should be transparent, the particle shape should be nonspherical, the refractive index of the particles should be 1.60, and the refractive index of the solvent should be 1.33.

[4] = Storage stability of processing agent (fire retardant for fibers); design: key: ◯: no agglomeration and no sedimentation are seen by visual checking; X: agglomeration and sedimentation are seen by visual checking; conditions: processing agent with 30 parts compound per 100 parts polyacrylic acid ester emulsion, 25° C. for 24 hours
Procedure: After interior car sheet cloth for automobiles was coated with the following processing liquid, its flame resistance and physical properties were tested. (test cloth): Polyester 100% woven car sheet cloth (weight of 300 g/m^2) was used. (processing agent): This was prepared by adding 1.5 parts of a nonionic surfactant, 1 part of a polyacrylic acid-based thickener and 0.5 part of 25% ammonia water to 100 parts of a polyacrylic acid ester emulsion having a solid content of 45% and further adding 30 parts of each of the above organic phosphorus-based compounds (FR-1 to FR-6) under agitation. The obtained processing agent was left to stand at 25° C. for 24 hours to evaluate its storage stability based on the following criteria.
◯: no agglomeration and no sedimentation are seen by visual checking
X: agglomeration and sedimentation are seen by visual checking

Compound	(ii) Solubility in 20° C. water [1]	(v) ΔpH value [2]	(vi) Volume standard median diameter [3] [μm]	(vii) Maximum particle diameter [3] [μm]	Stability [4]
CC(c1ccccc1)P1(=O)OCC2(CO1)COP(=O)(C(C)c1ccccc1)OC2 (stereo not drawn) [FR-2, 2,4,8,10-tetraoxa-3,9-diphosphaspiro[5.5]undecane,3,9-diα-methylbenzyl-3,9-dioxide]	0.01 g/100 g of water	0.6	20	160	◯
O=P1(C(c2ccccc2)c2ccccc2)OCC2(CO1)COP(=O)(C(c1ccccc1)c1ccccc1)OC2 (stereo not drawn) [FR-4, 2,4,8,10-tetraoxa-3,9-diphosphaspiro[5.5]undecane, 3,9-bis(diphenylmethyl)-3,9-dioxide]	0.01 g/100 g of water	0.7	25	180	◯
O=P1(CCc2ccccc2)OCC2(CO1)COP(=O)(CCc1ccccc1)OC2 (stereo not drawn) [FR-3, 2,4,8,10-tetraoxa-3,9-diphosphaspiro[5.5]undecane,3,9-di(2-phenylethyl)-3,9-dioxide]	0.01 g/100 g of water	0.3	22	140	◯
O=P1(Cc2ccccc2)OCC2(CO1)COP(=O)(Cc1ccccc1)OC2 (single isomer, unassigned) [FR-1, 2,4,8,10-tetraoxa-3,9-diphosphaspiro[5.5]undecane,3,9-dibenzyl-3,9-dioxide]	0.01 g/100 g of water	0.5	18	150	◯
O=P1(Cc2ccccc2)OCC2(CO1)COP(=O)(Cc1ccccc1)OC2 (single isomer, unassigned) [FR-6, 2,4,8,10-tetraoxa-3,9-diphosphaspiro[5.5]undecane,3,9-dibenzyl-3,9-dioxide]	0.01 g/100 g of water	1.3	21	140	X
O=P1(Cc2ccccc2)OCC2(CO1)COP(=O)(Cc1ccccc1)OC2 (single isomer, unassigned) [FR-5, 2,4,8,10-tetraoxa-3,9-diphosphaspiro[5.5]undecane, 3,9-dibenzyl-3,9-dioxide]	0.01 g/100 g of water	0.5	40	300	◯
